From patent publication US20070004636A1, “Method of degrading transcriptional factors of saccharometabolism-associated gene, method for inhibiting the degradation, and agent for inhibiting degradation and degradation inhibitor” (priority 2002, published 2007)

Tests used:
Type in all cases: cell-based
human HNF-4α = experiment: intracellular HNF-4α degradation test by adding calcium ionophore, HEK293T cells; conditions: 10 μg/mL, 3 hours, nuclear and cytoplasmic fraction
Experimental: After culturing a total number of 0.7×10^6 HEK293T cells for 22 hours at 37° C. under the presence of 5% CO2 (Petri dish with 60 mm diameter), 2 μg of HNF-4α expression plasmid (see Example 2) was transfected thereto using the FuGENE 6 Transfection Reagent. After two days of culturing, the culture medium was replaced with a medium that contained 10 μg/mL of ionophore A23187 (4-bromo-calcium ionophore A23187, Sigma Chemical Co.), and the culturing was continued for 3 hours. For a negative control group, the culture medium was replaced with a medium to which dimethylsulfoxide (DMSO) was added instead of the ionophore. After culturing for the pre-determined time, the cells were washed with cold PBS (−), suspended in 300 μl of hypotonic cell lysis buffer (10 mM HEPES, pH 7.5/10 mM MgCl2/42 mM KCl/1 mM PMSF), and left to stand on ice for 20 mins. The cells were disrupted with a homogenizer, and then centrifuged at 4° C. for 10 minutes at 600 g, to collect the resulting supernatant as a cytoplasmic fraction and the precipitation as a nuclear fraction. The nuclear fraction was further suspended in solution comprising 2×PBS/1% Nonidet P-40/0.1% SDS, and disrupted by ultrasonication. An equal volume of 2×SDS sample buffer was added thereto, heated for 5 minutes, and then subjected to 5-20% SDS-PAGE for separation. Detection of HNF-4α was conducted by the same method as in Example 4.

human HNF-1α = experiment: intracellular HNF-1α degradation test by adding calcium ionophore, HEK293T cells; conditions: 10 μg/mL, 4 hours
Experimental: After culturing a total number of 0.8×10^6 HEK293T cells for 5 hours at 37° C. under the presence of 5% CO2 (Petri dish with 60 mm diameter), 2 μg of an HNF-1α expression plasmid (see Example 7) was transfected thereto using the FuGENE 6 Transfection Reagent. After two days of culturing, the culture medium was replaced with a medium containing 10 μg/mL of ionophore A23187 (Sigma Chemical Co.) and 0.2% DMSO, and then the culturing was continued for 4 hours. For a negative control group, the culture medium was replaced with a medium containing 0.2% DMSO. After culturing for the pre-determined time, the cells were washed with cold PBS (−), suspended in 350 μl of hypotonic cell lysis buffer, and then left to stand on ice for 20 mins. The cells were disrupted with a homogenizer, and then centrifuged at 4° C. for 10 minutes at 600 g to collect the resulting supernatant as a cytoplasmic fraction and the precipitation as a nuclear fraction. The nuclear fraction was further suspended in solution comprising 2×PBS/1% Nonidet P-40/0.1% SDS, and disrupted by ultrasonication. The protein concentration of cell fractions was determined with Coomassie Plus Protein Assay Reagent Kit (Pierce Chemical Corp.). Each of the prepared samples was added to an equal volume of 2×SDS sample buffer, heated for 5 minutes, and then subjected to 5-20% SDS-PAGE for separation. […]

human IPF-1 = experiment: intracellular IPF-1 degradation test by adding calcium ionophore, HEK293T cells; conditions: 10 μg/mL, 4 hours
Experimental: After culturing a total number of 0.5×10^6 HEK293T cells for 24 hours at 37° C. under the presence of 5% CO2 (Petri dish with 60 mm diameter), 2 μg of IPF-1 expression plasmid (see Example 10) was transfected thereto using the FuGENE 6 Transfection Reagent. After two days of culturing, the culture medium was replaced with a medium containing 10 μg/mL of ionophore A23187 (Sigma Chemical Co.), and the culturing was continued for further 4 hours. For a negative control group, the culture medium was replaced with a medium containing 0.2% DMSO. After culturing for the pre-determined time, the cells were washed with cold PBS (−), suspended in 350 μl of hypotonic cell lysis buffer, and then left to stand on ice for 20 mins. The cells were disrupted with a homogenizer, and then centrifuged at 4° C. for 10 minutes at 600 g to collect the supernatant as a cytoplasmic fraction and the precipitation as a nuclear fraction. The nuclear fraction was further suspended in solution comprising 2×PBS/1% Nonidet P40/0.1% SDS, and disrupted by ultrasonication. The nuclear fraction and cell fraction were added to an equal volume of 2×SDS sample buffer, heated for 5 minutes, and then subjected to 5-20% SDS-PAGE for separation. Detection of IPF-1 was conducted by the same method as in Example 10.

4-bromo-calcium ionophore A23187
observed: degradation of HNF-4α by adding ionophore (human HNF-4α) | degradation of HNF-1α by addition of ionophore (human HNF-1α) | degradation of IPF-1 by addition of ionophore (human IPF-1)
